This passage reports inhibition and IC50 results from patent US9868737B2, “Pyridino[1,2-A]pyrimidone analogue used as MTOR/P13K inhibitor” (CISEN PHARMACEUTICAL CO., LTD., priority 2014, dated 2018).

For orientation: inhibition means the relative decrease from the control value, in per cent. Broadly, the IC50 is the concentration at which inhibition is half-maximal.

The test relates to MCF-7 cells. The experiment in a line: In vitro test of cell activity (MCF-7 cells, insulin stimulation, ELISA-One fluorescence). It is filed as cell-based. To be noted: Homo sapiens, MCF7, MCF-7 cells; for inhibition at 0.5 µM: conc. 0.5 μM; for inhibition at 0.25 µM: conc. 0.25 μM; for inhibition at 1 µM: conc. 1 μM. On the procedure: Example In Vitro Tests of Cell Activities Experimental Steps and Methods:
1) MCF-7 cells were inoculated at the density of 2.5×10^4 cells/well into 96-well plates (the culture medium used should be a complete culture medium containing 10% FBS).
2) On the next day, the medium in each well was drawn out. A certain concentration (preliminary screening) or a series of concentration (IC50 test) of compounds were dissolved in a culture medium without serum and added to the 96-well plates to culture cells for 2 hours.
3) Insulin was dissolved in a culture medium without serum, added to the cultured cells and incubated for 30 minutes, wherein the final concentration of insulin was […].
4) A lysis solution was prepared according to the following method during the waiting period for the reaction:
a) Enhancer solution was removed from the refrigerator to melt in advance.
b) Enhancer solution was diluted 10 times with the 5× Lysis Buffer to give a concentrated lysis solution.
c) The concentrated lysis solution was diluted 5 times with double distilled water to give the lysis solution.
5) The medium in each well was completely removed and each well was quickly rinsed with PBS once.
6) 150 μl of the freshly prepared lysis solution was added to each well and shaked at room temperature for 10 minutes.
7) After confirming that all cells were detached, the lysis solution together with the cell fragments was transferred into a 1.5 ml tube.
8) The tube was shaked on vortes mixer to make the lysis solution and cells mix completely and then the mixture was centrifugated at 4° C. under 12000 g for 10 minutes.
9) The number of strips of ELISA-one micro-well plate that is required was calculated. The needless strips were removed from the frame, put back into the storage bag and sealed. Before the strips of micro-well plate were used, 200 μl of double distilled water was used to rinse each well to remove preservative.
10) 50 μl of antibody mixture was added to each well. (The antibody mixture solution was prepared by mixing the medium antibody reagent and the enzyme labeled antibody reagent with an equal proportion. The preparation of antibody mixture didn't need vortex.)
11) 25 μl of cell lysates was added to each well of ELISA-One micro-well plate. The micro-well plate was covered with adhesive sealing film and incubated on a micro-well plate oscillation instrument at room temperature for 1 hour.
12) Each well was rinsed with 150 μl of 1× rinsing buffer 3 times. After the last rinsing, the rinsing buffer in the well was completely removed. If necessary, the 1× rinsing buffer could be allowed to stay in the micro-well plate for up to 30 minutes so that the substrate mixed solution could be prepared during such time period.
13) The substrate mixed solution should be prepared just before each use, 10 μl of the substrate mixed solution was added to each well and the micro-well plate was sealed with tin-foil and incubated on the micro-well plate oscillation instrument at room temperature for 10 minutes.
14) 10 μl of stop solution was added to each well and mixed slightly (5-10 seconds) on the micro-well plate oscillation instrument.
15) The corresponding ELISA-One filter group was assembled and used to read the fluorescence signal intensity.
A general note: An ELISA detects its analyte on a solid surface through an enzyme-linked reagent.

Where two headings read alike, the source gives them in different places. A value given as a limit tells only on which side of the number the result lay.

Regarding `COc1ncc(-c2ccc3ncc(N)c(=O)n3c2)cc1NS(=O)(=O)c1ccc(F)cc1F` [compound 87, N-(5-(3-amino-4-oxo-4H-pyrido[1,2-a]pyrimidin-7-yl)-2-methoxpyridin-3-yl)-2,4-difluorobenzsulfamide], the inhibition at 0.5 µM was 92.1% (read-out: % inhibition AKT) and 88.1% (read-out: % inhibition p70s6k). Also, the IC50 runs as follows: (read-out: IC50 p-AKT) not above 0.05 µM; (read-out: IC50 p-p70S6K) 0.1 to 0.25 µM.
For `COc1ncc(-c2ccc3ncc(Cl)c(=O)n3c2)cc1NS(=O)(=O)c1ccc(F)cc1C` [compound 134] the same measures were 94.9%, 87.7%, not above 0.05 µM and 0.05 to 0.1 µM.
As for `COc1ncc(-c2ccc3ncc(-n4ccc(C)n4)c(=O)n3c2)cc1NS(=O)(=O)c1ccccc1Cl` [compound 220], the inhibition at 0.25 µM is, setting by setting: (read-out: % inhibition AKT) 51.2%; (read-out: % inhibition p70s6k) 11%.
In the case of `COc1ncc(-c2ccc3nccc(=O)n3c2)cc1NS(=O)(=O)c1ccccc1F` [compound 2], the inhibition at 1 µM (read-out: % inhibition AKT) is 94.2% and the inhibition at 1 µM (read-out: % inhibition p70s6k) stood at 50.8%. In addition, the IC50 runs as follows: (read-out: IC50 p-AKT) 0.1 to 0.25 µM; (read-out: IC50 p-p70S6K) more than 0.25 µM.
As for `O=c1ccnc2ccc(-c3cnc(Cl)c(NS(=O)(=O)N4CCOCC4)c3)cn12` [compound 31], the inhibition at 1 µM is, setting by setting: (read-out: % inhibition AKT) 67.8%; (read-out: % inhibition p70s6k) 45.5%.
Take `COCOc1cnc2ccc(-c3cnc(OC)c(NS(=O)(=O)c4ccc(F)cc4F)c3)cn2c1=O` [compound 179]: the IC50 is not above 0.05 µM (read-out: IC50 p-AKT) and not above 0.05 µM (read-out: IC50 p-p70S6K).
On to `COc1ncc(-c2ccc3ncc(Cl)c(=O)n3c2)cc1NS(=O)(=O)c1cccnc1C` [compound 164], for which the inhibition at 0.25 µM (read-out: % inhibition AKT) was 79.4% and the inhibition at 0.25 µM (read-out: % inhibition p70s6k) was determined as 89.6%. The IC50 by setting is: (read-out: IC50 p-AKT) not above 0.05 µM; (read-out: IC50 p-p70S6K) 0.05 to 0.1 µM.
With `COc1ncc(-c2ccc3ncc(F)c(=O)n3c2)cc1NS(=O)(=O)c1ccc(F)cc1Cl` [compound 62], the inhibition at 0.5 µM (read-out: % inhibition AKT) amounted to 90.2% and the inhibition at 0.5 µM (read-out: % inhibition p70s6k) was found to be 90.8%. The IC50 is, setting by setting: (read-out: IC50 p-AKT) not above 0.05 µM; (read-out: IC50 p-p70S6K) 0.05 to 0.1 µM.
As to `COCCOc1cnc2ccc(-c3cnc(OC)c(NS(=O)(=O)c4sc(N(C)C)nc4C)c3)cn2c1=O` [compound 193], where the note is “read-out: IC50 p-AKT”, the IC50 was not above 0.05 µM.
In the case of `COc1ncc(-c2ccc3nccc(=O)n3c2C)cc1NS(=O)(=O)c1ccc(F)cc1Cl` [compound 56], the inhibition at 0.5 µM (read-out: % inhibition AKT) amounted to 80.2% and the inhibition at 0.5 µM (read-out: % inhibition p70s6k) came out at 53.3%.
Take `COc1ncc(-c2ccc3nccc(=O)n3c2)cc1NS(=O)(=O)c1ccc(Cl)cc1F` [compound 27]: the inhibition at 1 µM worked out at 94.8% (read-out: % inhibition AKT) and 93.5% (read-out: % inhibition p70s6k).
Turning to `COCOc1cnc2ccc(-c3cnc(OC)c(NS(=O)(=O)c4sc(C)nc4C)c3)cn2c1=O` [compound 181], for the setting “read-out: IC50 p-AKT”, the IC50 was not above 0.05 µM.
Turning to `COc1ncc(-c2ccc3nccc(=O)n3n2)cc1NS(=O)(=O)c1ccc(C(F)(F)F)cc1` [compound 80], the inhibition at 0.5 µM (read-out: % inhibition AKT) was determined as 54.6% and the inhibition at 0.5 µM (read-out: % inhibition p70s6k) is 14.4%.
Regarding `COc1ncc(-c2ccc3ncc(F)c(=O)n3c2)cc1NS(=O)(=O)c1cccc(F)c1` [compound 67], the inhibition at 0.5 µM was determined as 85.8% (read-out: % inhibition AKT) and 89.7% (read-out: % inhibition p70s6k). The IC50 is not above 0.05 µM (read-out: IC50 p-AKT) and not above 0.05 µM (read-out: IC50 p-p70S6K).
Consider `COc1ncc(-c2ccc3ncc(NC(C)=O)c(=O)n3c2)cc1NS(=O)(=O)c1ccc(F)cc1F` [compound 97], for which the IC50 (read-out: IC50 p-AKT) was more than 0.25 µM.
Regarding `COCCOc1cnc2ccc(-c3cnc(OC)c(NS(=O)(=O)c4cc(F)c(F)cc4Cl)c3)cn2c1=O` [compound 266], for the setting “read-out: IC50 p-AKT”, the IC50 is 0.1 to 0.25 µM.
Consider `COc1ncc(-c2ccc3ncc(Cl)c(=O)n3c2)cc1NS(=O)(=O)c1c(C)n[nH]c1C` [compound 163], for which the inhibition at 0.25 µM runs as follows: (read-out: % inhibition AKT) 78.1%; (read-out: % inhibition p70s6k) 88.8%. Also, the IC50 by setting is: (read-out: IC50 p-AKT) 0.1 to 0.25 µM; (read-out: IC50 p-p70S6K) 0.05 to 0.1 µM.
`COc1ncc(-c2cn3c(=O)ccnc3cn2)cc1NS(=O)(=O)c1ccccc1F` [compound 44]: the inhibition at 0.5 µM reads like this: (read-out: % inhibition AKT) 6.3%; (read-out: % inhibition p70s6k) 4.7%.
As for `COCCOc1ncc(-c2ccc3ncc(Cl)c(=O)n3c2)cc1NS(=O)(=O)c1ccc(F)cc1F` [compound 231, N-[5-(3-chloro-4-oxo-4H-pyrido[1,2-a]pyrimidin-7-yl)-2-(2-methoxy-ethoxy)-pyridin-3-yl]-2,4-difluorobenzsulfamide], the IC50 (read-out: IC50 p-AKT) was more than 0.25 µM.
`COc1ncc(-c2ccc3ncc(O)c(=O)n3c2)cc1NS(=O)(=O)c1ccc(F)cc1F` [compound 101, 2,4-difluoro-N-(5-(3-hydroxy-4-oxo-4H-pyrido[1,2-a]pyrimidin-7-yl)-2-methoxypyridin-3-yl) benzsulfamide]: the inhibition at 0.25 µM (read-out: % inhibition AKT) is 25% and the inhibition at 0.25 µM (read-out: % inhibition p70s6k) is 8.6%.
`CCOc1cnc2ccc(-c3cnc(OC)c(NS(=O)(=O)c4ccc(F)cc4Cl)c3)cn2c1=O` [compound 172]: the inhibition at 0.25 µM reads like this: (read-out: % inhibition AKT) 83.5%; (read-out: % inhibition p70s6k) 74.4%. Moreover, the IC50 (read-out: IC50 p-AKT) was not above 0.05 µM and the IC50 (read-out: IC50 p-p70S6K) fell in the range of 0.1 to 0.25 µM.
With `COc1ncc(-c2ccc3nccc(=O)n3c2)cc1NS(=O)(=O)c1ccc(F)cc1` [compound 11], the inhibition at 1 µM (read-out: % inhibition AKT) was 94.7% and the inhibition at 1 µM (read-out: % inhibition p70s6k) was found to be 52.3%. Further, the IC50 lay in the range of 0.05 to 0.1 µM (read-out: IC50 p-AKT) and 0.1 to 0.25 µM (read-out: IC50 p-p70S6K).
Regarding `COc1ncc(-c2ccc3ncc(C)c(=O)n3c2)cc1NS(=O)(=O)c1ccccc1Cl` [compound 85], the inhibition at 0.5 µM runs as follows: (read-out: % inhibition AKT) 95.8%; (read-out: % inhibition p70s6k) 88.3%. Also, the concentration for half-maximal inhibition (IC50) runs as follows: (read-out: IC50 p-AKT) not above 0.05 µM; (read-out: IC50 p-p70S6K) 0.05 to 0.1 µM.
As for `COc1ncc(-c2ccc3ncc(C)c(=O)n3c2)cc1NS(=O)(=O)c1ccc(Cl)cc1F` [compound 82], the inhibition at 0.5 µM (read-out: % inhibition AKT) worked out at 92.1% and the inhibition at 0.5 µM (read-out: % inhibition p70s6k) turned out to be 88.1%. Further, the IC50 is not above 0.05 µM (read-out: IC50 p-AKT) and 0.1 to 0.25 µM (read-out: IC50 p-p70S6K).
For `COCCOc1cnc2ccc(-c3cnc(OC)c(NS(=O)(=O)c4ccccc4F)c3)cn2c1=O` [compound 254], the IC50 (read-out: IC50 p-AKT) fell in the range of 0.05 to 0.1 µM.
On to `COc1ncc(-c2ccc3nccc(=O)n3c2C)cc1NS(=O)(=O)c1ccc(C#N)cc1` [compound 59], for which the inhibition at 0.5 µM is, setting by setting: (read-out: % inhibition AKT) 59.7%; (read-out: % inhibition p70s6k) 26.5%.
Take `COc1ncc(-c2ccc3ncc(Cl)c(=O)n3c2)cc1NS(=O)(=O)c1cc(F)ccc1F` [compound 139]: the inhibition at 0.5 µM turned out to be 93.7% (read-out: % inhibition AKT) and 88.5% (read-out: % inhibition p70s6k). The IC50 by setting is: (read-out: IC50 p-AKT) not above 0.05 µM; (read-out: IC50 p-p70S6K) 0.05 to 0.1 µM.
Consider `COc1ncc(-c2ccc3nc(N)cc(=O)n3c2)cc1NS(=O)(=O)c1sc(C)nc1C` [compound 236, N-(5-(2-amino-4-oxo-4H-pyrido[1,2-a]pyrimidin-7-yl)-2-methoxypyridin-3-yl)-2,4-dimethylthiazolyl-5-sulfamide], for which the IC50 (read-out: IC50 p-AKT) was in the range of 0.05 to 0.1 µM.
In the case of `COc1ncc(-c2cn3c(=O)ccnc3cn2)cc1NS(=O)(=O)c1c(F)cccc1F` [compound 46], the inhibition at 0.5 µM is, setting by setting: (read-out: % inhibition AKT) 60.3%; (read-out: % inhibition p70s6k) 13.3%.
Turning to `COc1ncc(-c2cn3c(=O)ccnc3cc2F)cc1NS(=O)(=O)c1ccc(F)cc1F` [compound 112], the inhibition at 0.5 µM came out at 40.8% (read-out: % inhibition AKT) and 3.6% (read-out: % inhibition p70s6k).
On to `COc1ncc(-c2ccc3ncc(Cl)c(=O)n3c2)cc1NS(=O)(=O)c1ncc(C)s1` [compound 162], for which the inhibition at 0.25 µM amounted to 77.8% (read-out: % inhibition AKT) and 64.9% (read-out: % inhibition p70s6k). Also, the IC50 is 0.05 to 0.1 µM (read-out: IC50 p-AKT) and 0.1 to 0.25 µM (read-out: IC50 p-p70S6K).
`COc1ncc(-c2ccc3ncc(-n4ccc(C)n4)c(=O)n3c2)cc1NS(=O)(=O)c1ccc(F)cc1F` [compound 216, 2,4-difluoro-N-(2-methoxy-5-(3-(3-methyl-1H-pyrazol-1-yl)-4-oxo-4H-pyrido[1,2-a]pyrimidin-7-yl)pyridin-3-yl)benzsulfamide]: the inhibition at 0.25 µM runs as follows: (read-out: % inhibition AKT) 34.1%; (read-out: % inhibition p70s6k) 31%.
